Molecular target: T1, Aβ1-40 peptide monomer (Homo sapiens, UniProt P05067)
T1 construct: An Aβ1-40 peptide monomer stock solution was prepared
Assay: Inhibition of the seed-triggered aggregation of Aβ1-40 peptide monomer (HPLC quantitation of residual monomer)
Type: biochemical
Conditions: 50 μm test compound; 20 μM Aβ1-40 monomer; 4 μm pre-formed sonicated Aβ1-40 fibrils (seed); phosphate buffer pH 7.4, 150 mM NaCl; two hours at 37° C.
Description: The compounds disclosed in the present invention interfere with the aggregation of monomeric Aβ1-40 peptide stimulated by a seed of Aβ1-40 amyloid fibrils. The activity of the compounds was assessed according to the procedure reported below.
An Aβ1-40 peptide monomer stock solution was prepared by dissolving the peptide in dimethylsulfoxide at a concentration of 33.33 mg/ml. The stock solution was further diluted 11.5 times with dimethylsulfoxide. This solution was then diluted with 10 mM phosphate buffer pH 7.4 containing 150 mM sodium chloride to prepare the test solution.
To an eppendorf tube containing 47 μl of Aβ1-40 peptide monomer solution were added 3 μl of a 830 μM water solution of the test compound containing 66.4 μM, based on the Aβ1-40 monomer content, of pre-formed sonicated Aβ1-40 fibrils: the resulting solution was 20 μM in Aβ1-40 monomer, 50 μm in the test compound and contained 4 μm, based on the Aβ1-40 monomer content, of pre-formed sonicated Aβ1-40 fibrils. The aggregation was allowed to proceed for two hours at 37° C. The suspension was then centrifuged at 15000 rpm for 15 minutes at +4° C., the supernatant was collected and the Aβ1-40 monomer was quantitated by HPLC.
The activity is expressed as the percent of inhibition of the aggregation of a 20 μM Aβ1-40 monomer solution stimulated by 4 μm, based on the Aβ1-40 monomer content, pre-formed sonicated Aβ1-40 fibrils.

T1 sequence (P05067 672-711 limits assumed): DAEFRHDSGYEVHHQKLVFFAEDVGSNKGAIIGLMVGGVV

| SMILES | % INHIBITION of the aggregation of Aβ1-40 monomer [%] |
| --- | --- |
| COc1cccc2c1C(=O)c1c(O)c3c(c(O)c1C2=O)C[C@@](O)(c1csc(N2CCN(C)CC2)n1)C[C@@H]3N1CCOCC1 [Compound 1j, 7-Deoxy-7-(4-morpholinyl)-9-deacetyl-9-[2-(4-methyl-perazin-1-yl)-thiazol-4-yl]-daunomycinone] | 49.2 |
| COc1cccc2c1C(=O)c1c(O)c3c(c(O)c1C2=O)C[C@@](O)(c1csc(NCCN(C)C)n1)C[C@@H]3O [Compound 1d, 9-Deacetyl-9-[2-(2-dimethylaminoethylamino)-thiazol-4-yl]-daunomycinone] | 33.7 |
| COc1cccc2c1C(=O)c1c(O)c3c(c(O)c1C2=O)C[C@@](O)(c1csc(N2CCN(C)CC2)n1)CC3 [Compound 1i, 7-Deoxy-9-deacetyl-9-[2-(4-methyl-piperazin-1-yl)-thiazol-4-yl]-daunomycinone] | 31.7 |

Reference: patent US6316451A, “Heterocyclyl anthracyclinone derivatives” (Pharmacia & Upjohn S.p.A., priority 1998, dated 2001)
